Reference: ChEMBL document CHEMBL3045700, “Synthesis and in vitro and in vivo antimalarial activity of novel 4-anilinoquinoline Mannich base derivatives” (2011)
Calls of active or inactive are those of the source. No cut-off for these calls is given here.

How the values were obtained:
[1] = tested on: Plasmodium falciparum; experiment: Antimalarial activity against chloroquine-sensitive Plasmodium falciparum 3D7 assessed as inhibition of schizont maturation at 100 ug/ml after 36 to 40 hr incubation by Giemsa staining; assay type: functional
[2] = tested on: Plasmodium falciparum; experiment: Antimalarial activity against chloroquine-sensitive Plasmodium falciparum 3D7 assessed as inhibition of schizont maturation at 50 ug/ml after 36 to 40 hr incubation by Giemsa staining; assay type: functional
[3] = tested on: Plasmodium falciparum; experiment: Antimalarial activity against chloroquine-sensitive Plasmodium falciparum RKL-2 assessed as dead rings and schizonts at 100 ug/ml after 36 to 40 hr incubation by Giemsa staining; assay type: functional
[4] = tested on: Plasmodium yoelii; experiment: Antimalarial activity against chloroquine-resistant Plasmodium yoelii infected Swiss mouse assessed as mouse showing nil parasitemia at 500 mg/kg, po qd for 4 days measured on day 4; assay type: functional, organism-based; design: dose 500 mg/kg
[5] = tested on: Plasmodium yoelii; experiment: Antimalarial activity against chloroquine-resistant Plasmodium yoelii infected Swiss mouse assessed as mouse showing nil parasitemia at 500 mg/kg, po qd for 4 days measured on day 10; assay type: functional, organism-based; design: dose 500 mg/kg
[6] = tested on: Plasmodium yoelii; experiment: Antimalarial activity against chloroquine-resistant Plasmodium yoelii infected Swiss mouse assessed as mouse showing nil parasitemia at 500 mg/kg, po qd for 4 days measured on day 7; assay type: functional, organism-based; design: dose 500 mg/kg
[7] = tested on: Plasmodium yoelii; experiment: Antimalarial activity against chloroquine-resistant Plasmodium yoelii infected Swiss mouse assessed as suppression parasitemia at 500 mg/kg, po qd for 4 days; assay type: functional
[8] = tested on: Plasmodium falciparum; experiment: Antimalarial activity against chloroquine-sensitive Plasmodium falciparum 3D7 assessed as inhibition of schizont maturation at 0.031 ug/ml after 36 to 40 hr incubation by Giemsa staining; assay type: functional
[9] = tested on: Plasmodium falciparum; experiment: Antimalarial activity against chloroquine-sensitive Plasmodium falciparum 3D7 assessed as inhibition of schizont maturation at 0.063 ug/ml after 36 to 40 hr incubation by Giemsa staining; assay type: functional
[10] = tested on: Plasmodium falciparum; experiment: Antimalarial activity against chloroquine-sensitive Plasmodium falciparum 3D7 assessed as inhibition of schizont maturation at 0.125 ug/ml after 36 to 40 hr incubation by Giemsa staining; assay type: functional
[11] = tested on: Plasmodium falciparum; experiment: Antimalarial activity against chloroquine-sensitive Plasmodium falciparum 3D7 assessed as inhibition of schizont maturation at 0.25 ug/ml after 36 to 40 hr incubation by Giemsa staining; assay type: functional
[12] = tested on: Plasmodium falciparum; experiment: Antimalarial activity against chloroquine-sensitive Plasmodium falciparum 3D7 assessed as inhibition of schizont maturation at 0.5 ug/ml after 36 to 40 hr incubation by Giemsa staining; assay type: functional
[13] = tested on: Plasmodium falciparum; experiment: Antimalarial activity against chloroquine-sensitive Plasmodium falciparum 3D7 assessed as inhibition of schizont maturation at 1 ug/ml after 36 to 40 hr incubation by Giemsa staining; assay type: functional
[14] = tested on: Plasmodium falciparum; experiment: Antimalarial activity against chloroquine-sensitive Plasmodium falciparum 3D7 assessed as inhibition of schizont maturation at 2 ug/ml after 36 to 40 hr incubation by Giemsa staining; assay type: functional
[15] = tested on: Plasmodium falciparum; experiment: Antimalarial activity against chloroquine-sensitive Plasmodium falciparum 3D7 assessed as inhibition of schizont maturation at 10 ug/ml after 36 to 40 hr incubation by Giemsa staining; assay type: functional
[16] = tested on: Plasmodium falciparum; experiment: Antimalarial activity against chloroquine-sensitive Plasmodium falciparum RKL-2 assessed as dead rings and schizonts at 0.4 ug/ml after 36 to 40 hr incubation by Giemsa staining; assay type: functional
[17] = tested on: Plasmodium falciparum; experiment: Antimalarial activity against chloroquine-sensitive Plasmodium falciparum 3D7 assessed as inhibition of schizont maturation at 0.0625 ug/ml after 36 to 40 hr incubation by Giemsa staining; assay type: functional

Oc1ccc(Nc2ccnc3cc(Cl)ccc23)cc1CN(c1ccccc1)c1ccccc1
inhibition at 100 µg/mL [1]: 38.9%
inhibition at 50 µg/mL [2]: 0.05%

CC(C)NCc1cc(Nc2ccnc3cc(Cl)ccc23)ccc1O
Activity [3]: 6.5%

Oc1ccc(Nc2ccnc3cc(Cl)ccc23)cc1CN1CCOCC1
Activity [4]: Active
Activity [5]: Active
Activity [6]: Active
Activity [7]: 100%
inhibition at 0.031 µg/mL [8]: 73.3%
inhibition at 0.063 µg/mL [9]: 100%
inhibition at 0.125 µg/mL [10]: 100%
inhibition at 0.25 µg/mL [11]: 100%
inhibition at 0.5 µg/mL [12]: 100%
inhibition at 1 µg/mL [13]: 100%
inhibition at 2 µg/mL [14]: 100%
inhibition at 10 µg/mL [15]: 100%
inhibition at 100 µg/mL [1]: 100%
inhibition at 50 µg/mL [2]: 100%

CC(C)N(Cc1cc(Nc2ccnc3cc(Cl)ccc23)ccc1O)C(C)C
Activity [3]: 3%

CCCCNCc1cc(Nc2ccnc3cc(Cl)ccc23)ccc1O
inhibition at 1 µg/mL [13]: 71.1%
inhibition at 2 µg/mL [14]: 82.2%
inhibition at 10 µg/mL [15]: 100%
inhibition at 100 µg/mL [1]: 100%
inhibition at 50 µg/mL [2]: 100%

CCN(CC)CCCC(C)Nc1ccnc2cc(Cl)ccc12 (stereo not given) [CHLOROQUINE]
Activity [16]: 54%
inhibition at 0.0625 µg/mL [17]: 88.4%
inhibition at 0.125 µg/mL [10]: 97.1%
inhibition at 0.25 µg/mL [11]: 100%
inhibition at 0.5 µg/mL [12]: 100%

CCCNCc1cc(Nc2ccnc3cc(Cl)ccc23)ccc1O
Activity [3]: 6.5%

CCCCN(CCCC)Cc1cc(Nc2ccnc3cc(Cl)ccc23)ccc1O
Activity [3]: 5%
